From patent US11370770B2, “3-arylindazoles as selective MEK4 inhibitors” (priority 2019, dated 2022)

Legend:
MEK2 [1] = target: T1, MEK2 (Homo sapiens (Human), UniProt P36507); assay: MEK family profiling ADP-Glo, MEK2; type: biochemical; settings: Erk2 substrate; 0.6 μM ATP; read-out: IC50 MEK isoform 2
MEK3 = MEK3 (Homo sapiens (Human), UniProt P46734); assay: MEK family profiling ADP-Glo, MEK3; type: biochemical; settings: p38α substrate; 0.6 μM ATP; read-out: IC50 MEK isoform 3
MEK5 = MEK5 (Homo sapiens (Human), UniProt Q13163); assay: MEK family profiling ADP-Glo, MEK5; type: biochemical; settings: Erk5 substrate; 0.6 μM ATP; read-out: IC50 MEK isoform 5
[2] = target: ABL1(T3151)-non-phosphorylated (Homo sapiens (Human), UniProt P00519, T315I); assay: KINOMEscan binding assay; settings: percent of control
ABL1-phophorylated = ABL1-phophorylated (Homo sapiens (Human), UniProt P00519); assay: KINOMEscan binding assay; settings: percent of control
CDC2L1 = CDC2L1 (Homo sapiens (Human), UniProt P21127); assay: KINOMEscan binding assay; settings: percent of control
CDK2 = CDK2 (Homo sapiens (Human), UniProt P24941); assay: KINOMEscan binding assay; settings: percent of control
CDK9 = CDK9 (Homo sapiens (Human), UniProt P50750); assay: KINOMEscan binding assay; settings: percent of control
CHEK2 = CHEK2 (Homo sapiens (Human), UniProt O96017); assay: KINOMEscan binding assay; settings: percent of control
Chain of CHEK2 (O96017 whole entry): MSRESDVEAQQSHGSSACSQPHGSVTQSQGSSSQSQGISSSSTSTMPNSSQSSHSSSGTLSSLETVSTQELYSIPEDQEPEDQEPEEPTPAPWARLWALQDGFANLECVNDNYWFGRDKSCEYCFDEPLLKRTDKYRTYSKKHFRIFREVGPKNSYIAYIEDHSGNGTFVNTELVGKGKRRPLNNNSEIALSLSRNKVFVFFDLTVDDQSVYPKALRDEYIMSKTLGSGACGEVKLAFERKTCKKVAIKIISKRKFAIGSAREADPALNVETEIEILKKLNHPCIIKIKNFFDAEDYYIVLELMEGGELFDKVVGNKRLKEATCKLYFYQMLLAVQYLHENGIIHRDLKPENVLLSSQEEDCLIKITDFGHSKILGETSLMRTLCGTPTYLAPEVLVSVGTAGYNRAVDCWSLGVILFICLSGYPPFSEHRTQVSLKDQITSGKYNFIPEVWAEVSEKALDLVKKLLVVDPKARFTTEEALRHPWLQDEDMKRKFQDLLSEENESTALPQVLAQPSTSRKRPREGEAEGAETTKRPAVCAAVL

[3] = target: (Homo sapiens (Human), UniProt P49761); assay: KINOMEscan binding assay; settings: C;L3; percent of control
CSNK1A1L = CSNK1A1L (Homo sapiens (Human), UniProt Q8N752); assay: KINOMEscan binding assay; settings: percent of control
[4] = target: (Homo sapiens (Human), UniProt P49674); assay: KINOMEscan binding assay; settings: CSML1E; percent of control
Chain of (Homo sapiens (Human), UniProt P49674) (P49674 whole entry): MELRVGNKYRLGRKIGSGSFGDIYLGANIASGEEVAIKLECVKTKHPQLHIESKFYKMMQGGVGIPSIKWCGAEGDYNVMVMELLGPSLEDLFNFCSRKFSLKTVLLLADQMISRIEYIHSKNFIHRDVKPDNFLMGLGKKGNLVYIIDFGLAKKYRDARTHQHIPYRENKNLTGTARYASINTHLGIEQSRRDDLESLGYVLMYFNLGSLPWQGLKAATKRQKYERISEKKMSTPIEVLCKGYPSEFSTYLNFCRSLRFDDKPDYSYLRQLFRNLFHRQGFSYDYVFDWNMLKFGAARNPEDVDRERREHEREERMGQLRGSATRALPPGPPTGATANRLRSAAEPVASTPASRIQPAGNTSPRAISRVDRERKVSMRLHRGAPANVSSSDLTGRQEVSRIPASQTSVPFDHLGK

CSNK1G1 = CSNK1G1 (Homo sapiens (Human), UniProt Q9HCP0); assay: KINOMEscan binding assay; settings: percent of control
CSML2A1 = CSML2A1 (Homo sapiens (Human), UniProt P68400); assay: KINOMEscan binding assay; settings: percent of control
DMPK = DMPK (Homo sapiens (Human), UniProt Q09013); assay: KINOMEscan binding assay; settings: percent of control
[5] = target: EGFR(L747-S752DEL, P753S) (Homo sapiens (Human), UniProt P00533, DEL747-752/P753S); assay: KINOMEscan binding assay; settings: percent of control
EPHA2 = EPHA2 (Homo sapiens (Human), UniProt P29317); assay: KINOMEscan binding assay; settings: percent of control
EPHB4 = EPHB4 (Homo sapiens (Human), UniProt P54760); assay: KINOMEscan binding assay; settings: percent of control
FGFR1 = FGFR1 (Homo sapiens (Human), UniProt P11362); assay: KINOMEscan binding assay; settings: percent of control
HIPK1 = HIPK1 (Homo sapiens (Human), UniProt Q86Z02); assay: KINOMEscan binding assay; settings: percent of control
ICK = ICK (Homo sapiens (Human), UniProt Q9UPZ9); assay: KINOMEscan binding assay; settings: percent of control
IKK-ALPHA = IKK-ALPHA (Homo sapiens (Human), UniProt O15111); assay: KINOMEscan binding assay; settings: percent of control
Chain of IKK-ALPHA (O15111 whole entry): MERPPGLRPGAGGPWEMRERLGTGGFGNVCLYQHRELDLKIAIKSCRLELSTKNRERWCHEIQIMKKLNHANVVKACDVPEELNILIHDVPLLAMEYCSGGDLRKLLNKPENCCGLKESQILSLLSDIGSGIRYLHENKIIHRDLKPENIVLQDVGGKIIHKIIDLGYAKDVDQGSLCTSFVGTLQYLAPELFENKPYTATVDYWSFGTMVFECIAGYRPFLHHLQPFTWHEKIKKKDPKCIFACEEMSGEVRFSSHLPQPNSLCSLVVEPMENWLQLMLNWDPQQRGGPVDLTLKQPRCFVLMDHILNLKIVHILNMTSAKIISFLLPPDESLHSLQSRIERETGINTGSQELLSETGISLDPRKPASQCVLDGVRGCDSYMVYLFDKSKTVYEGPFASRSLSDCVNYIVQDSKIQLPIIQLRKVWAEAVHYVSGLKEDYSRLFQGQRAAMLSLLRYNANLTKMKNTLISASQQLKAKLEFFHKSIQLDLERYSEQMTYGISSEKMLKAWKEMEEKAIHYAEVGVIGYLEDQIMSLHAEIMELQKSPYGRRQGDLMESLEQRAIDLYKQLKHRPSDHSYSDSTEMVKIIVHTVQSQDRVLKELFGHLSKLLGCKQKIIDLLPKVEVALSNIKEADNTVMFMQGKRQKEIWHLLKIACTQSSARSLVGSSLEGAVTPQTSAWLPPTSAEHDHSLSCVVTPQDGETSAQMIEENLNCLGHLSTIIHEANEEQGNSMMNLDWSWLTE

KIT(L576P) = KIT(L576P) (Homo sapiens (Human), UniProt P10721, L576P); assay: KINOMEscan binding assay; settings: percent of control
Chain of KIT(L576P) (P10721 26-976 L576P): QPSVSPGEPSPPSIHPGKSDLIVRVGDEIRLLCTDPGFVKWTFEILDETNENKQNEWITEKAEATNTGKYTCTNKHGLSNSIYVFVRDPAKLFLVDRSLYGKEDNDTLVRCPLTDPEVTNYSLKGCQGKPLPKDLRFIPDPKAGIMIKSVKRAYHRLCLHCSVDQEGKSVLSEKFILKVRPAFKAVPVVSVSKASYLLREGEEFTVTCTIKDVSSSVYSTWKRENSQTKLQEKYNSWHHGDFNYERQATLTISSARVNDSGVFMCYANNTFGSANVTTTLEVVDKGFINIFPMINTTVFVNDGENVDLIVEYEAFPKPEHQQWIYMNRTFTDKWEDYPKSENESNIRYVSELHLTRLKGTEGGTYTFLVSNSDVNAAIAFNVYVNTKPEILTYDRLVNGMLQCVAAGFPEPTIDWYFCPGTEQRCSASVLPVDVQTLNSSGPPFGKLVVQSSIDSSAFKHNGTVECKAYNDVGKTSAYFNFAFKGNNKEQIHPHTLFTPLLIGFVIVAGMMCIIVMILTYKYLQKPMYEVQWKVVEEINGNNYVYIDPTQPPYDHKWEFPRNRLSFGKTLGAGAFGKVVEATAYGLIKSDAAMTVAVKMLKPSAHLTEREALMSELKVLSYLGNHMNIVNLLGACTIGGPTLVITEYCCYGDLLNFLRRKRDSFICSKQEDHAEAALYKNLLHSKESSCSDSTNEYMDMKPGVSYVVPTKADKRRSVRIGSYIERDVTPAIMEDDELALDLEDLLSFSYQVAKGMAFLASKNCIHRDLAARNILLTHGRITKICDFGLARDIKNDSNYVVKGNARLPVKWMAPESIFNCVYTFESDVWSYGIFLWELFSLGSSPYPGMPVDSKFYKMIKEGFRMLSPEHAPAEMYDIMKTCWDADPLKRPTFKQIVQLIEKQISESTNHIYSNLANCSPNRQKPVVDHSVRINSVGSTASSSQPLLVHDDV

MARK4 = MARK4 (Homo sapiens (Human), UniProt Q96L34); assay: KINOMEscan binding assay; settings: percent of control
MEK2 [6] = target: T1, MEK2; assay: KINOMEscan binding assay; settings: percent of control
MKNK2 = MKNK2 (Homo sapiens (Human), UniProt Q9HBH9); assay: KINOMEscan binding assay; settings: percent of control
Chain of MKNK2 (Q9HBH9 whole entry): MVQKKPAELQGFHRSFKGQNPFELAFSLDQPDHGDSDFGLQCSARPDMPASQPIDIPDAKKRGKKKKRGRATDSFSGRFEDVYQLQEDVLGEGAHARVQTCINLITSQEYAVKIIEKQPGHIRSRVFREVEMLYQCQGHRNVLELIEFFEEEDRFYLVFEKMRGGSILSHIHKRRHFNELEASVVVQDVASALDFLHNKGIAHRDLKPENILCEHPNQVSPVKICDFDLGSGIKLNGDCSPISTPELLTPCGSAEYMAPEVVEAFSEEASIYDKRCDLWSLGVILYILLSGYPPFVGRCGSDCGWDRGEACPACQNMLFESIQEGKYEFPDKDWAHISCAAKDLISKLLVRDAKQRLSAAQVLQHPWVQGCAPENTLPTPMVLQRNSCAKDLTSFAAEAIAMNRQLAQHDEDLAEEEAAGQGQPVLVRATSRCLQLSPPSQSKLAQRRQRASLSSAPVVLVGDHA

MRCKA = MRCKA (Homo sapiens (Human), UniProt Q5VT25); assay: KINOMEscan binding assay; settings: percent of control
NLK = NLK (Homo sapiens (Human), UniProt Q9UBE8); assay: KINOMEscan binding assay; settings: percent of control
PHKG2 = PHKG2 (Homo sapiens (Human), UniProt P15735); assay: KINOMEscan binding assay; settings: percent of control
PIK4CB = PIK4CB (Homo sapiens (Human), UniProt Q9UBF8); assay: KINOMEscan binding assay; settings: percent of control
PKN2 = PKN2 (Homo sapiens (Human), UniProt Q16513); assay: KINOMEscan binding assay; settings: percent of control
PRKCD = PRKCD (Homo sapiens (Human), UniProt Q05655); assay: KINOMEscan binding assay; settings: percent of control
PRKG1 = PRKG1 (Homo sapiens (Human), UniProt Q13976); assay: KINOMEscan binding assay; settings: percent of control
RAF1 = RAF1 (Homo sapiens (Human), UniProt P04049); assay: KINOMEscan binding assay; settings: percent of control
SIK2 = SIK2 (Homo sapiens (Human), UniProt Q9H0K1); assay: KINOMEscan binding assay; settings: percent of control
TEC = TEC (Homo sapiens (Human), UniProt P42680); assay: KINOMEscan binding assay; settings: percent of control
TNIK = TNIK (Homo sapiens (Human), UniProt Q9UKE5); assay: KINOMEscan binding assay; settings: percent of control
TRKC = TRKC (Homo sapiens (Human), UniProt Q16288); assay: KINOMEscan binding assay; settings: percent of control
VEGFR2 = VEGFR2 (Homo sapiens (Human), UniProt P35968); assay: KINOMEscan binding assay; settings: percent of control
Chain of VEGFR2 (P35968 20-1356): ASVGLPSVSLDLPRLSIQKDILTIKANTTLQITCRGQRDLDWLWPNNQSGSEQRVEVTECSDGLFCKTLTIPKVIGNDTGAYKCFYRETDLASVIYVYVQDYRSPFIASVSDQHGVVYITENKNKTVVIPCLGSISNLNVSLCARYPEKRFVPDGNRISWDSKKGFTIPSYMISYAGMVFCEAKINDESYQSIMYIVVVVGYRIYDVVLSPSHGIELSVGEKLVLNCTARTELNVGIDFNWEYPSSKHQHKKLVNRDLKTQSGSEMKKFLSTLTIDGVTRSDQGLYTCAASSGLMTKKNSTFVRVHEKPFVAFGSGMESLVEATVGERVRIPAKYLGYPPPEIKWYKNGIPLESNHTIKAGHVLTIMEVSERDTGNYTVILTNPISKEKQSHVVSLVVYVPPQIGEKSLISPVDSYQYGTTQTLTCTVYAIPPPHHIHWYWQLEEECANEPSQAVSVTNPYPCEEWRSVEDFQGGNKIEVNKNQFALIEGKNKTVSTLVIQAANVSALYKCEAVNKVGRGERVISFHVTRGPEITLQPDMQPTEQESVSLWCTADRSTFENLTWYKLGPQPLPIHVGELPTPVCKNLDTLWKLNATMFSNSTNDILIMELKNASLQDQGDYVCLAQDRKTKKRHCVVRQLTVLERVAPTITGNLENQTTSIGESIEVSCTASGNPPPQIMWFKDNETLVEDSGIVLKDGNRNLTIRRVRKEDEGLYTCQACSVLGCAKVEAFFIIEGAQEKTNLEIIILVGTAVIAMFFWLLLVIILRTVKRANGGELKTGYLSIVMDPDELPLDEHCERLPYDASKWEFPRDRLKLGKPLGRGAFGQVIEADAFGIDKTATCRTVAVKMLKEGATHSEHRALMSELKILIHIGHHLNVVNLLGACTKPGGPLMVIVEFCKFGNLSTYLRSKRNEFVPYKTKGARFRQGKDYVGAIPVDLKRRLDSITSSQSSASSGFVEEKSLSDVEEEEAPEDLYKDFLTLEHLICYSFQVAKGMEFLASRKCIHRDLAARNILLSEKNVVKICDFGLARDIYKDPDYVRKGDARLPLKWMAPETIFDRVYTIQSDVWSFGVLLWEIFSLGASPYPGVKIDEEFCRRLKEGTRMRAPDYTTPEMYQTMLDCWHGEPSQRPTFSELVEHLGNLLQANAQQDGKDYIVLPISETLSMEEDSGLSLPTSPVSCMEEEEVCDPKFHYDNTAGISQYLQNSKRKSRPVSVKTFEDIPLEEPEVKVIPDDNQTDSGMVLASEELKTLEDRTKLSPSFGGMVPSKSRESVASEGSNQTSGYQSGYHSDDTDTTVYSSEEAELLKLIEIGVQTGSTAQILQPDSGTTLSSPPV

ZAP70 = ZAP70 (Homo sapiens (Human), UniProt P43403); assay: KINOMEscan binding assay; settings: percent of control

T1 sequence (P36507 whole entry, canonical isoform): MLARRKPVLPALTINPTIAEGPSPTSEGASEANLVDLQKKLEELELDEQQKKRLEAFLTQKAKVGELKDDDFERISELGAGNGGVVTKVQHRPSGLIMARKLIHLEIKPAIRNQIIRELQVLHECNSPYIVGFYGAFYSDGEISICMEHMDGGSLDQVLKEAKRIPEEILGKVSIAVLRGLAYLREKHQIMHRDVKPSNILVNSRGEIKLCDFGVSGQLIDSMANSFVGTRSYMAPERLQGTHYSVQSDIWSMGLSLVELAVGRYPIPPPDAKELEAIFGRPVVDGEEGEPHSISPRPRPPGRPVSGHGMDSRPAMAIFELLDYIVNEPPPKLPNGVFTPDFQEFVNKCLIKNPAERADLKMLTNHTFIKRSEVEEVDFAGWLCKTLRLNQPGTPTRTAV

| SMILES | IC50 (MEK2 [1]) [µM] | IC50 (MEK3) [µM] | IC50 (MEK5) [µM] | % Ctrl @ 10000 nM [2] [% Ctrl] | % Ctrl @ 10000 nM (ABL1-phophorylated) [% Ctrl] | % Ctrl @ 10000 nM (CDC2L1) [% Ctrl] | % Ctrl @ 10000 nM (CDK2) [% Ctrl] | % Ctrl @ 10000 nM (CDK9) [% Ctrl] | % Ctrl @ 10000 nM (CHEK2) [% Ctrl] | % Ctrl @ 10000 nM [3] [% Ctrl] | % Ctrl @ 10000 nM (CSNK1A1L) [% Ctrl] | % Ctrl @ 10000 nM [4] [% Ctrl] | % Ctrl @ 10000 nM (CSNK1G1) [% Ctrl] | % Ctrl @ 10000 nM (CSML2A1) [% Ctrl] | % Ctrl @ 10000 nM (DMPK) [% Ctrl] | % Ctrl @ 10000 nM [5] [% Ctrl] | % Ctrl @ 10000 nM (EPHA2) [% Ctrl] | % Ctrl @ 10000 nM (EPHB4) [% Ctrl] | % Ctrl @ 10000 nM (FGFR1) [% Ctrl] | % Ctrl @ 10000 nM (HIPK1) [% Ctrl] | other results |
| --- | --- | --- | --- | --- | --- | --- | --- | --- | --- | --- | --- | --- | --- | --- | --- | --- | --- | --- | --- | --- | --- |
| O=C(O)c1cccc(-c2n[nH]c3ccccc23)c1 [Compound 6a, 3-(1H-indazol-3-yl)benzoic Acid] | > 27 | 16 | > 27 | 67 | 86 | 100 | 97 | 95 | 76 | 94 | 87 | 88 | 80 | 0.75 | 100 | 85 | 92 | 89 | 100 | 43 | % Ctrl @ 10000 nM (ICK): 43 % Ctrl; % Ctrl @ 10000 nM (IKK-ALPHA): 50 % Ctrl; % Ctrl @ 10000 nM (KIT(L576P)): 59 % Ctrl; % Ctrl @ 10000 nM (MARK4): 97 % Ctrl; % Ctrl @ 10000 nM (MEK2 [6]): 60 % Ctrl; % Ctrl @ 10000 nM (MKNK2): 66 % Ctrl; % Ctrl @ 10000 nM (MRCKA): 95 % Ctrl; % Ctrl @ 10000 nM (NLK): 97 % Ctrl; % Ctrl @ 10000 nM (PHKG2): 98 % Ctrl; % Ctrl @ 10000 nM (PIK4CB): 0 % Ctrl; % Ctrl @ 10000 nM (PKN2): 100 % Ctrl; % Ctrl @ 10000 nM (PRKCD): 100 % Ctrl; % Ctrl @ 10000 nM (PRKG1): 100 % Ctrl; % Ctrl @ 10000 nM (RAF1): 100 % Ctrl; % Ctrl @ 10000 nM (SIK2): 93 % Ctrl; % Ctrl @ 10000 nM (TEC): 100 % Ctrl; % Ctrl @ 10000 nM (TNIK): 65 % Ctrl; % Ctrl @ 10000 nM (TRKC): 39 % Ctrl; % Ctrl @ 10000 nM (VEGFR2): 20 % Ctrl; % Ctrl @ 10000 nM (ZAP70): 70 % Ctrl |
| O=C(O)c1ccc(-c2n[nH]c3cc(F)ccc23)cc1 [Compound 6ff, 4-(6-fluoro-2H-indazol-3-yl)benzoic Acid] | > 27 | > 27 | > 27 | 15 | 73 | 100 | 100 | 98 | 39 | 100 | 93 | 100 | 90 | 0 | 100 | 81 | 100 | 100 | 99 | 48 | % Ctrl @ 10000 nM (ICK): 26 % Ctrl; % Ctrl @ 10000 nM (IKK-ALPHA): 14 % Ctrl; % Ctrl @ 10000 nM (KIT(L576P)): 11 % Ctrl; % Ctrl @ 10000 nM (MARK4): 86 % Ctrl; % Ctrl @ 10000 nM (MEK2 [6]): 61 % Ctrl; % Ctrl @ 10000 nM (MKNK2): 43 % Ctrl; % Ctrl @ 10000 nM (MRCKA): 89 % Ctrl; % Ctrl @ 10000 nM (NLK): 99 % Ctrl; % Ctrl @ 10000 nM (PHKG2): 89 % Ctrl; % Ctrl @ 10000 nM (PIK4CB): 28 % Ctrl; % Ctrl @ 10000 nM (PKN2): 95 % Ctrl; % Ctrl @ 10000 nM (PRKCD): 100 % Ctrl; % Ctrl @ 10000 nM (PRKG1): 100 % Ctrl; % Ctrl @ 10000 nM (RAF1): 100 % Ctrl; % Ctrl @ 10000 nM (SIK2): 100 % Ctrl; % Ctrl @ 10000 nM (TEC): 100 % Ctrl; % Ctrl @ 10000 nM (TNIK): 3.6 % Ctrl; % Ctrl @ 10000 nM (TRKC): 11 % Ctrl; % Ctrl @ 10000 nM (VEGFR2): 3.5 % Ctrl; % Ctrl @ 10000 nM (ZAP70): 73 % Ctrl |
